In patent US20110166144A1, “Pyrimidotriazinediones and Pyrimidopyrimidinediones and Methods of Using the Same” (THE REGENTS OF THE UNIVERSITY OF MICHIGAN, priority 2008, published 2011):
Read-outs that look alike come from different tables or passages of the source.

Columns and labels:
β-catenin/TCF complex = test: cells; format: cell-based
[1] = system: IEC18 Rat Epithelial Cells (IEC18-S33Y); conditions: 17-20 h with compound, WST-1
Method: Using the above assay system, IC50 and LD50 values were determined for the pyrimidotriazinedione compounds. IEC18-S33Y cells carrying a β-catenin firefly luciferase cassette and a constitutively active renilla luciferase cassette were seeded at 40,000 cells/well in 96-well tissue culture plates (BD Biosciences, Bedford, Mass.) in a total volume of 80 μL of tissue culture medium (Dulbecco's modified Eagle medium without Phenol-Red (Invitrogen, Carlsbad, Calif.) supplemented with 10% (v/v) fetal bovine serum (Hyclone, Logan, Utah)) and incubated for 24 h. […] Working solutions of the compounds were obtained by further diluting the stock solutions in tissue culture medium by at least 50-fold. Serial twofold dilutions of the working solutions of the compounds were added to the cells in a volume of 40 μL and the cells were incubated in the presence of the compounds for 17-20 h.
LD50 values of the pyrimidotriazinediones then were determined using a WST-1 colorimetric cell proliferation assay. A mixture containing 20 μL of medium and 10 μL of WST-1 reagent (available from Roche, Indianapolis, Ind.) was added to the cells and the cells were incubated for 1 h at 37° C., after which time absorption at 550 nm was measured using a microplate reader.

[2] = Pharmacokinetic properties in mice (plasma level by HPLC/MS); format: in vivo; conditions: 10 mg/kg, plasma 1 minute to 12 hours post-injection
Method: The pharmacokinetic properties of a substituted pyrimido[5,4-e][1,2,4]triazine-5,7(6H,8H)-dione of formula II (3-(4-(2-(Diethylamino)ethoxy)phenyl)-8-(3,4-difluorobenzyl)-6-methylpyrimido[5,4-e][1,2,4]triazine-5,7(6H,8H)-dione) in mice were determined by dosing a cohort of mice with 10 mg/kg compound. Blood was drawn from the mice at various time points (1 minute, 15 minutes, 30 minutes, 3 hours, 6 hours, and 12 hours) post-injection. The blood plasma was isolated from the drawn blood and the amount of compound present in the plasma was measured by HPLC with peak analysis by mass spectrometry.

[3] = Rattus norvegicus, IEC18-S33Y cells, 17-20 h with compound, β-catenin-dependent firefly luciferase with Renilla control, read-out: IC50

SMILES | melting point | IC50 (β-catenin/TCF complex; [3]) | LD50 [1] | also measured
Cn1nc(-c2ccc([N+](=O)[O-])cc2)nc2c(=O)n(C)c(=O)nc1-2 | 220 to 223 °C |  |  | 
Cn1nc(-c2cccc([N+](=O)[O-])c2)nc2c(=O)n(C)c(=O)nc1-2 | 223 to 224 °C |  |  | 
Cn1c(=O)nc2[nH]nc(-c3ccccc3F)nc-2c1=O | 248 to 250 °C |  |  | 
CCCn1c(=O)n(C)c(=O)c2nc(-c3ccc(Cl)cc3)nnc21 | 202 to 205 °C |  |  | 
Cc1ccc(Cn2c(=O)n(C)c(=O)c3nc(-c4ccccc4F)nnc32)cc1 | 320 °C (dec.) |  |  | 
Cn1c(=O)c2nc(-c3ccccc3)nnc2n(Cc2ccc(F)cc2)c1=O | 253 to 254 °C |  |  | 
Cn1c(=O)c2nc(-c3ccc(Cl)cc3)nnc2n(Cc2ccccc2F)c1=O | 251 to 254 °C |  |  | 
Cn1c(=O)c2nc(-c3ccccc3)nnc2n(Cc2ccc(C(F)(F)F)cc2)c1=O | 225 to 227 °C (dec.) |  |  | 
Cn1c(=O)c2nc(-c3ccccc3)nnc2n(Cc2ccc([N+](=O)[O-])cc2)c1=O | 274 to 280 °C (dec.) |  |  | 
Cn1c(=O)nc2n(CCO)nc(-c3ccc(Cl)c(Cl)c3)nc-2c1=O | 208 to 211 °C (dec.) |  |  | 
COc1ccc(-c2nc3c(=O)n(C)c(=O)nc-3n(CCO)n2)cc1OC | 215 to 218 °C (dec.) |  |  | 
Cn1nc(-c2ccccc2)[n+]([O-])c2c(=O)n(C)c(=O)nc1-2 |  | 490 ± 220 nM | 1.71 ± 46.77 µM | 
Cn1nc(-c2ccc(Cl)cc2)[n+]([O-])c2c(=O)n(C)c(=O)nc1-2 |  | 700 ± 150 nM | 2.01 ± 2.58 µM | 
Cc1nc2c(=O)n(C)c(=O)nc-2n(C)n1 [Compound 5b, 1,3,6-Trimethylpyrimido[5,4-e][1,2,4]triazine-5,7(1H,6H)-dione] |  | 1000 ± 190 nM | 2.02 ± 0.75 µM | 
CCc1nc2c(=O)n(C)c(=O)nc-2n(C)n1 [Compound 5c, 3-Ethyl-1,6-dimethylpyrimido[5,4-e][1,2,4]triazine-5,7(1H,6H)-dione] |  | 1420 ± 250 nM | 2.94 ± 10 µM | 
Cn1nc(-c2ccccc2)nc2c(=O)n(C)c(=O)nc1-2 [Compound 5d, 1,6-Dimethyl-3-phenylpyrimido[5,4-e][1,2,4]triazine-5,7(1H,6H)-dione] |  | 530 ± 100 nM | 1.39 ± 0.44 µM | 
Cc1ccc(-c2nc3c(=O)n(C)c(=O)nc-3n(C)n2)cc1 [Compound 5e, 1,6-Dimethyl-3-(4-methylphenyl)pyrimido[5,4-e][1,2,4]triazine-5,7(1H,6H)-dione] |  | 680 ± 90 nM | 0.84 ± 0.25 µM | 
Cn1nc(-c2ccc(F)cc2)nc2c(=O)n(C)c(=O)nc1-2 [Compound 5f, 3-(4-Fluorophenyl)-1,6-dimethylpyrimido[5,4-e][1,2,4]triazine-5,7(1H,6H)-dione] |  | 300 ± 70 nM | 1.10 ± 0.01 µM | 
Cn1nc(-c2ccccc2F)nc2c(=O)n(C)c(=O)nc1-2 [Compound 5g, 3-(2-Fluorophenyl)-1,6-dimethylpyrimido[5,4-e][1,2,4]triazine-5,7(1H,6H)-dione] |  | 190 ± 14 nM | 0.71 ± 3.31 µM | 

SMILES | melting point | IC50 (β-catenin/TCF complex; [3]) | LD50 [1] | also measured
Cn1nc(-c2ccc(Cl)cc2)nc2c(=O)n(C)c(=O)nc1-2 [Compound 5h, 3-(4-Chlorophenyl)-1,6-dimethylpyrimido[5,4-e][1,2,4]triazine-5,7(1H,6H)-dione] |  | 1050 ± 290 nM | 2.84 ± 0.80 µM | 
Cn1nc(-c2cccc(Cl)c2)nc2c(=O)n(C)c(=O)nc1-2 [Compound 5i, 3-(3-Chlorophenyl)-1,6-dimethylpyrimido[5,4-e][1,2,4]triazine-5,7(1H,6H)-dione] |  | 5030 ± 1180 nM | 23.88 ± 5.17 µM | 
Cn1nc(-c2ccc(Cl)c(Cl)c2)nc2c(=O)n(C)c(=O)nc1-2 [Compound 5j, 3-(3,4-Dichlorophenyl)-1,6-dimethylpyrimido[5,4-e][1,2,4]triazine-5,7(1H,6H)-dione] |  |  | 30.1 ± 17.54 µM | IC50 (β-catenin/TCF complex; Rattus norvegicus): 9320 ± 7440 nM
CCN(CC)CCOc1ccc(-c2nc3c(=O)n(C)c(=O)nc-3n(C)n2)cc1 [Compound 5l, 3-(4-(2-(Diethylamino)ethoxy)phenyl)-1,6-dimethylpyrimido[5,4-e][1,2,4]triazine-5,7(1H,6H)-dione] |  | 16 ± 18 nM | 0.136 ± 1 µM | 
Cc1ccc(-c2n[nH]c3nc(=O)n(C)c(=O)c-3n2)cc1 [Compound 6a, 6-Methyl-3-p-tolylpyrimido[5,4-e][1,2,4]triazine-5,7(1H,6H)-dione] |  | 21100 ± 14100 nM | >50 µM | 
Cn1c(=O)c2nc(-c3ccccc3F)nnc2n(Cc2ccccc2)c1=O [Compound 7d, 8-Benzyl-3-(2-fluorophenyl)-6-methylpyrimido[5,4-e][1,2,4]triazine-5,7(6H,8H)-dione] |  | 3600 ± 2250 nM |  | 
Cn1c(=O)c2nc(-c3ccc(F)cc3)nnc2n(Cc2ccc(C(C)(C)C)cc2)c1=O [Compound 7h, 8-(4-tert-Butylbenzyl)-3-(4-fluorophenyl)-6-methylpyrimido[5,4-e][1,2,4]triazine-5,7(6H,8H)-dione] |  | 330 ± 10 nM |  | 
COc1ccc(-c2nnc3c(n2)c(=O)n(C)c(=O)n3Cc2ccc(F)cc2)cc1 [Compound 7j, 8-(4-Fluorobenzyl)-3-(4-methoxyphenyl)-6-methylpyrimido[5,4-e][1,2,4]triazine-5,7(6H,8H)-dione] | 230 to 234 °C (dec.) |  |  | 
Cn1c(=O)nc2n(CCO)nc(-c3ccccc3)nc-2c1=O [Compound 8a, 1-(2-Hydroxyethyl)-6-methyl-3-phenylpyrimido[5,4-e][1,2,4]triazine-5,7(1H,6H)-dione] |  | 970 ± 220 nM | 2.09 ± 0.78 µM | 
Cc1ccc(-c2nc3c(=O)n(C)c(=O)nc-3n(CCO)n2)cc1 [Compound 8b, 1-(2-Hydroxyethyl)-6-methyl-3-(4-methylphenyl)pyrimido[5,4-e][1,2,4]triazine-5,7(1H,6H)-dione] |  | 320 ± 230 nM | 2.55 ± 21.76 µM | 
Cn1c(=O)nc2n(CCO)nc(-c3ccc(Cl)cc3)nc-2c1=O [Compound 8c, 3-(4-Chlorophenyl)-1-(2-hydroxyethyl)-6-methylpyrimido[5,4-e][1,2,4]triazine-5,7(1H,6H)-dione] |  | 4560 ± 8240 nM | 6.36 ± 21.76 µM | 
COc1ccc(-c2nc3c(=O)n(C)c(=O)nc-3n(CCO)n2)cc1 [Compound 8e, 1-(2-Hydroxyethyl)-3-(4-methoxyphenyl)-6-methylpyrimido[5,4-e][1,2,4]triazine-5,7(1H,6H)-5,7-dione] |  |  | 8.39 ± 10.29 µM | IC50 (β-catenin/TCF complex; IEC18-S33Y cells, 17-20 h with compound, β-catenin-dependent firefly luciferase with Renilla control, read-out: IC50): 6070 ± 4910 nM
Cn1c(=O)nc2n(CCO)nc(-c3ccc(OCCN4CCCC4)cc3)nc-2c1=O [Compound 8f, 1-(2-Hydroxyethyl)-6-methyl-3-(4-(2-(pyrrolidin-1-yl)ethoxy)phenyl)pyrimido[5,4-e][1,2,4]triazine-5,7(1H,6H)-dione] |  | 1340 ± 150 nM | 1.55 ± 0.22 µM | 
CN(C)c1ccc(-c2nc3c(=O)n(C)c(=O)nc-3n(CCO)n2)cc1 [Compound 8i, 3-(4-(Dimethylamino)phenyl)-1-(2-hydroxyethyl)-6-methylpyrimido[5,4-e][1,2,4]triazine-5,7(1H,6H)-dione] | 170 to 180 °C (dec.) |  |  | 
Cn1c(=O)nc2n(CCO)nc(-c3ccccn3)nc-2c1=O [Compound 8j, 1-(2-Hydroxyethyl)-6-methyl-3-(pyridin-2-yl)pyrimido[5,4-e]-[1,2,4]triazine-5,7(1H,6H)-dione] |  | 3810 ± 590 nM | 9.55 ± 0.001 µM | 
CCN(CC)CCOc1ccc(-c2nnc3c(n2)c(=O)n(C)c(=O)n3Cc2cccc(F)c2)cc1 [Compound 10c, 3-(4-(2-(Diethylamino)ethoxy)phenyl)-8-(3-fluorobenzyl)-6-methylpyrimido[5,4-e][1,2,4]triazine-5,7(6H,8H)-dione] |  | 23400 ± 2830 nM | 21.49 ± 10.42 µM | 
CCN(CC)CCOc1ccc(-c2nnc3c(n2)c(=O)n(C)c(=O)n3Cc2ccc(F)c(F)c2)cc1 [Compound 10g, 3-(4-(2-(Diethylamino)ethoxy)phenyl)-8-(3,4-difluorobenzyl)-6-methylpyrimido[5,4-e][1,2,4]triazine-5,7(6H,8H)-dione] |  | 700 ± 130 nM | 2.57 ± 10.99 µM | pharmacokinetic properties as assessed by peak plasma level and half-life [2]: favorable pharmacokinetic properties
Cn1nc(-c2ccccc2F)nc2c(=O)[nH]c(=O)nc1-2 [Compound 17a, 3-(2-Fluorophenyl)-1-methylpyrimido[5,4-e][1,2,4]triazine-5,7(1H,6H)-dione] | 240 to 247 °C (dec.) |  |  | 
Cn1nc(-c2ccccc2F)nc2c(=O)n(Cc3ccc(F)c(F)c3)c(=O)nc1-2 [Compound 17e, 6-(3,4-Difluorobenzyl)-3-(2-fluorophenyl)-1-methylpyrimido[5,4-e][1,2,4]triazine-5,7(1H,6H)-dione] |  | 110 ± 60 nM | 0.48 ± 0.10 µM | inhibitory activity of β-catenin-mediated transcription (in words) (β-catenin/TCF complex; IEC18-S33Y cells): antagonized β-catenin-mediated transcription
